Results on three molecules are retold here after patent US20220195462A1, “FULLY-HUMAN POST-TRANSLATIONALLY MODIFIED ANTIBODY THERAPEUTICS” (REGENXBIO INC., priority 2019, published 2022).

Test [1] relates to carrageenan-induced paw edema in mice. The test can be described thus: Carrageenan paw edema model in mice. Type of test: in vivo, mouse. The note with it: C57BL/6 mice, compared with vehicle control group. The text has this: Inflammation models induced by carrageenan are frequently used acute inflammation models. Carrageenan (Cg) is a strong chemical agent that functions in stimulating the release of inflammatory and proinflammatory mediators, including bradykinin, histamine, tachykinins, reactive oxygen, and nitrogen species. Typical signs of inflammation include edema, hyperalgesia, and erythema, which develop immediately following the treatment of carrageenan. This example evaluated the effect of AAV-mediated gene delivery of Lanadelumab on carrageenan-induced paw edema in mice.
In total eighty young adult (8-9 weeks old) male C57BL/6 mice were used for this study. Paw edema was induced by a single subcutaneous (s.c.) injection of 30 μL of 0.7% or 1% carrageenan solution. […] Paw volume was measured using a digital Plethysmometer prior to carrageenan injection, and at 2, 4, 6, 8, 24 and 48 hours after injection. All animals were sacrificed 48 hours after carrageenan injection. Liver and paw specimens were also collected at the necropsy.

In test [2] the target is activated human plasma kallikrein (Enzyme Research Laboratories) (human) (UniProt P03952). As to the kind of experiment: cell-based or functional assay.

As to `O=C(O)Cc1ccccc1Nc1c(Cl)cccc1Cl` [diclofenac, Diclofenac], the “paw volume after carrageenan injection” value in test [1] (0.7% Cg model) is “significant decrease on paw volume was observed only at 4 and 24 hours”; in test [1] (1.0% Cg model), “significantly decreased the paw volume at 2, 4, 6, 8 and 24 hours”.

B1: Lanadelumab (GenScript), purified IgG (antibody, V domains shown)
VH: EVQLLESGGGLVQPGGSLRLSCAASGFTFSHYIMMWVRQAPGKGLEWVSGIYSSGGITVYADSVKGRFTISRDNSKNTLYLQMNSLRAEDTAVYYCAYRRIGVPRRDEFDIWGQGTMVTVSS
VL: DIQMTQSPSTLSASVGDRVTITCRASQSISSWLAWYQQKPGKAPKLLIYKASTLESGVPSRFSGSGSGTEFTLTISSLQPDDFATYYCQQYNTYWTFGQGTKVEIKR
With B1, the suppression of pKal activity (PFR-AMC fluorogenic kinetic enzymatic assay, antibody dose response) in test [2] is 0.1 nM.

B2: vectorized lanadelumab (AAV8 ApoE.hAAT.L02-derived) in serum, or in total IgG purified from serum, of treated C57BL/6 mice (antibody, V domains shown)
VH: B1 VH
VL: B1 VL
As for B2, the percent reduction in pKal activity (serum diluted 1:25, day 49 post-administration vs day -7; PFR-AMC assay) in test [2] was 50%.
